According to publication PMC9486805, “Identification of a Phage Display-Derived Peptide Interacting with the N-Terminal Region of Factor VII Activating Protease (FSAP) Enables Characterization of Zymogen Activation” (ACS Chemical Biology, 2022):

Key:
FSAP heavy chain = assay: Binding of biotinylated peptides to captured recombinant FSAP heavy chain; set-up: species or system human; conditions: peptide 1 μM; triplicate wells (Fig 2E)
Experimental: (§1) Figure 2 NNKC9/41 interacts with the NTR of pro-FSAP: (A) To determine peptide binding to pro-FSAP, wells were coated with 2 μg/mL pro-FSAP and biotinylated NNKC9/41 and NNK11/189 and their respective scrambled controls were added in different concentration (0–5 μM). Peroxidase-labeled streptavidin was used to detect peptide binding. (B) Same procedure as in (A) except that different proteins were immobilized and biotinylated NNKC9/41 (0–30 μM) was added and its binding was measured. (C) Schematic structure of pro-FSAP with the heavy chain consisting of an NTR, three EGF domains, and a kringle domain, followed by the light chain harboring the serine protease domain (SPD). The binding domains of antibodies used in this study are indicated. (D) Recombinant complete heavy chain (heavy) and truncated heavy chain variants ΔNTR, ΔEGF1, ΔEGF2, ΔEGF3, and ΔKringle were expressed in bacteria and analyzed by sodium dodecyl sulfate poly(acrylamide) gel electrophoresis (SDS-PAGE) followed by Coomassie staining. […] Biotinylated NNKC9/41 or the scrambled control peptide was added at 1 μM and peptide binding was measured with peroxidase-linked streptavidin. […]
(§2) Wells were coated with anti-FSAP polyclonal antibodies (5 μg/mL). […] Subsequently, the plates were washed, and bound peptides were detected with peroxidase-coupled streptavidin. […]

[1] = system: recombinant serine protease domain (SPD) of FSAP; assay: Activity of recombinant serine protease domain of FSAP; type: biochemical, human; conditions: rSPD 20 nM; peptide 0-50 μM; S2288 250 µM (Fig S7A)
Experimental: Fig S7. […]
(§3) nM) and Factor Xa (20 nM) with S-2765 (250 µM). pro-FSAP (20 nM) and recombinant serine protease domain (rSPD) (20 nM) with S2288 (250 µM). All pro-enzymes and enzyme were obtained from Enzyme Research Laboratories (South Bend, IN, USA) except plasminogen and FSAP, which were isolated in house; and pro-uPA was from Grünenthal (Stolberg, Germany). All chromogenic substrates were from Hyphen Biomed (Neuville Sur Oise, France). Experiments were carried out in TBS with Tween-20 (0.1 % wt/ vol) BSA (0.3% wt/vol) and CaCl2 (2 mM). Absorbance at 405 nm was measured over time and the enzyme activity is depicted was measured in duplicates (mean + or -range) and similar results were obtained in 3

pro-urokinase = assay: Specificity towards pro-enzymes: pro-urokinase; type: biochemical; conditions: pro-uPA 100 nM; peptide 0-50 μM; PNAPEP 1344 (Fig S7)
Experimental: Fig S7. […]
µM). Pro-uPA (100 nM) and uPA (20 nM) with PNAPEP 1344 (250 µM). Factor X (50 […]
as §3, with “Bend,” for “nM) and Factor Xa (20 nM) with S-2765 (250 µM). pro-FSAP (20 nM) and recombinant serine protease domain (rSPD) (20 nM) with S2288 (250 µM). All pro-enzymes and enzyme were obtained from Enzyme Research Laboratories (South Bend,”

plasmin = assay: Specificity: plasmin; type: biochemical; conditions: plasmin 20 nM; peptide 0-50 μM; CS41 (Fig S7)
Experimental: Fig S7. […]
as §3, with “Bend,” for “nM) and Factor Xa (20 nM) with S-2765 (250 µM). pro-FSAP (20 nM) and recombinant serine protease domain (rSPD) (20 nM) with S2288 (250 µM). All pro-enzymes and enzyme were obtained from Enzyme Research Laboratories (South Bend,”

Factor Xa = assay: Specificity: factor Xa; type: biochemical; conditions: Factor Xa 20 nM; peptide 0-50 μM; S-2765 (Fig S7)
Experimental: Fig S7. […]
as §3, with “Bend,” for “nM) and Factor Xa (20 nM) with S-2765 (250 µM). pro-FSAP (20 nM) and recombinant serine protease domain (rSPD) (20 nM) with S2288 (250 µM). All pro-enzymes and enzyme were obtained from Enzyme Research Laboratories (South Bend,”

ΔNTR mutant = assay: Binding of biotinylated peptides to captured ΔNTR mutant; set-up: species or system human; conditions: peptide 1 μM; triplicate wells (Fig 2E)
Experimental: as §1, §2

**Q.** Which “peptide binding to heavy chain” value (FSAP heavy chain) does the source give for CRGAMWMYKRC [NNKC9/41] here?
**A.** Its value is “high binding”.

**Q.** And the “effect on activity of recombinant SPD” value [1]?
**A.** The value was “did not alter the activity”.

**Q.** What about the effect on activity (pro-urokinase) of the same sequence?
**A.** The effect on activity was “did not influence the activity”.

**Q.** And the effect on activity (plasmin)?
**A.** The effect on activity was “did not influence the activity”.

**Q.** And the effect on activity (Factor Xa)?
**A.** Its effect on activity is “did not influence the activity”.

**Q.** And the “peptide binding to ΔNTR mutant” value (ΔNTR mutant)?
**A.** The value was “very low binding”.
